# Where two headings read alike, the source gives them in different places.
# What was measured:
# [1] = system: pregnant mouse dams; conditions: in vivo; cited from earlier work
# [2] = C3 partitioning and plasma protein binding in mouse blood and plasma; assay type: in vitro ADME
# [3] = mouse, in vivo
# [4] = mouse, in vivo; for V (volume of distribution): 1.1 mg/kg
# [5] = Stability of C3 in solutions at pH 1 or pH 10; assay type: physicochemical; conditions: pH 1 or pH 10 for >24 h at 37°C
# [6] = Tissue distribution of 14C-C3 in mice; design: species or system C57BL/6J mice; conditions: mouse, in vivo
# [7] = 10 or 100 μg/ml, 3000 mwco centricon filter
substance,measurement,setting,value
"e,e,e, tris malonic acid C60 [C3]","effects on fertility, pregnancy, viability or anatomy of the offspring",[1],failed to find any effects
same,14C-C3 in the filtrate of the saline control,[2]; [7],73%
same,14C-C3 in the plasma filtrate (free),[2]; [7],13%
same,fraction of blood C3 in the plasma fraction,"[2]; blood from treated animals and naïve blood spiked with 14C-C3, centrifugation",> 99%
same,protein bound,"[2]; mouse plasma, 10 or 100 μg/ml, mean ± SEM",87 ± 0.1%
same,brain uptake,[3],10 % of the administered dose
same,V (volume of distribution),[4]; ip,0.91 ± 0.12 L/kg
same,V (volume of distribution),[4]; iv,0.85 ± 0.08 L/kg
same,Oral bioavailability,[4]; po,~ 10 % of the i.v. administration
same,stability in solution,[5],"a small fraction of carboxylic acid head-groups were removed, but the cyclopropane carbons were intact"
same,"tissue radioactivity, 7-day pump vs single bolus dose, adjusted for dose",[6],5 times

# Reference: PMC6128740 (European journal of drug metabolism and pharmacokinetics, 2018)
